Experiments:
Rap1 = Rap1 activation affinity assay, Hek293 cells; assay type: cell-based; settings: 10 μM; for Effect of inhibitor on isoproterenol's activation of endogenous Rap1: 20 minutes
Description: The Rap1 activation affinity assay was performed as follows. A GST fusion protein of the Rap1-binding domain of RalGDS (GST-RalGDS, Dr. Bos, Utrecht University, The Netherlands) was expressed in E. coli following induction by isopropyl-1thio-β-D-galactopyranoside. Active Rap1 was isolated as previously described (Franke et al., EMBO J. 16:252-9, 1997). Briefly, equivalent amounts of supernatants (500 μg) were incubated with GST-RalGDS-Rap1 binding domain coupled to glutathione beads. Following a one hour incubation at 4° C., beads were pelleted and rinsed threes times with ice-cold lysis buffer. The protein was eluted from the beads using 2× Laemmli buffer and applied to a 12% SDS-polyacrylamide gel. Proteins were tansferred to PVDF membrane (Millipore Corporation, Bedford, Mass.), blocked in 5% milk for one hour and, probed with either α-Rap1/Krev-1 (Santa Cruz Biotechnology Inc., Santa Cruz, Calif.) or Flag antibody (Sigma, St Louis, Mo.) overnight at 4° C., followed by an HRP-conjugated anti-rabbit secondary antibody (or anti-mouse secondary for anti-Flag western blots). Proteins were detected using enhanced chemiluminescence.
Hek293 cells (ATCC) were cultured in DMEM plus 10% fetal calf serum, penicillin/streptomycin, and L-glutamine at 37° C. in 5% CO2. Cells were maintained in serum-free DMEM for 16 hours at 37° C. in 5% CO2 prior to treatment with H89 (10 μM) or PP2 (10 μM) for 20 minutes, and then treated with isoproterenol (10 μM) for 5 minutes. Cell lysates were prepared, and a Rap1 activation affinity assay performed as described in Example 1. […] This activation required Src family kinases (SFKs) as it was blocked by the inhibitor PP2.
The mechanism of ERK activation by isoproterenol in Hek293 cells was determined as follows. Hek293 cells were transfected with Flag-Rap1 along with pcDNA3, SrcS17A, SrcS17D, or SrcWT as described above. […]

ERK1/2 = experiment: ERK phosphorylation Western blot, Hek293 cells; assay type: cell-based; settings: 10 μM, 20 minutes pretreatment
Description: To examine the downstream consequences of Src-dependent signaling in Hek293 cells, ERK activation was measured using pERK antibodies (pERK1/2). Hek293 cells received no pretreatment or were pretreated for 20 minutes with H89 (10 μM), PP2 (10 μM), or LY (10 μM), and stimulated for 5 minutes with isoproterenol (10 μM), Forskolin (10 μM), or 100 ng/ml EGF, using the methods described above. Cell lysates were analyzed by Western blotting for the presence of pERK1/2 (New England Biolabs) or total ERK2 (Santa Cruz Biotechnology) as a control for protein loading.
To determine the role of PKA phosphorylation of Src serine 17 in ERK activation by cAMP, Hek293 cells were transfected with myc-ERK2 in the presence or absence of SrcS17A or SrcS17D, and stimulated with 10 μM isoproterenol. MycERK2 was immunoprecipitated from cell lysates using an agarose-coupled Myc antibody followed by western blotting for phospho-ERK (pMycERK2, upper panel) or total MycERK2 with a Myc antibody, as a control for protein loading.

Compound | Effect of inhibitor on isoproterenol's activation of endogenous Rap1 (Rap1) | Effect of inhibitor on isoproterenol's phosphorylation of ERK (ERK1/2) | Activation of endogenous Rap1 (Rap1; 5 minutes)
O=S(=O)(NCCNC/C=C/c1ccc(Br)cc1)c1cccc2cnccc12 [H89, N-[2(Bromocimamylamino)ethyl]-5-isoquinolinesulfonamide] | PKA-dependent | inhibited | 
CC(C)(C)n1nc(-c2ccc(Cl)cc2)c2c(N)ncnc21 [PP2, 4-amino-5-(4-chlorophenyl)-7-(t-butyl)pyazolo[3,4-d]pyrimidine] | blocked | inhibited | 
CC(C)NCC(O)c1ccc(O)c(O)c1 (centres unmarked) [isoproterenol] |  |  | activated endogenous Rap1
